Results: paper PMC9371589 (Behavioural pharmacology, 2022)

Experiments:
Type in all cases: in vivo, rat
male Sprague-Dawley rats [1] = assay: Rotarod motor coordination; settings: 10 mg/kg i.p., 30 minutes before test; vehicle 193.6 ± 14.9
male Sprague-Dawley rats [2] = assay: Complete Freund's Adjuvant; settings: 48 hours after CFA injection (24 hours post-treatment)
male Sprague-Dawley rats [3] = assay: Gastrointestinal transit of a charcoal meal; settings: 30 mg/kg; vehicle 0.62 ± 0.02
male Sprague-Dawley rats [4] = assay: Brennan model of incisional pain

For `CN1C(=O)CN=C(c2ccccc2)c2cc(Cl)ccc21` [Diazepam, diazepam], the “time spent on the rotarod” value (male Sprague-Dawley rats [1]) was 60.1 ± 23.7 s.

In the case of `O=C(O)Cc1ccccc1Nc1c(Cl)cccc1Cl` [Diclofenac, diclofenac], the effect on edema (male Sprague-Dawley rats [2]) is reported as “decreased edema”.

With `CN1CC[C@]23c4c5ccc(O)c4O[C@H]2[C@@H](O)C=C[C@H]3[C@H]1C5` [morphine] the “relative distance traveled (gastrointestinal transit)” value (male Sprague-Dawley rats [3]) was 0.22 ± 0.02, the “effect of daily administration on anti-hyperalgesic effect (tolerance)” value (male Sprague-Dawley rats [4]; 5 mg/kg s.c. once a day for 7 consecutive days) was “blunted its effects on hyperalgesia” and the “duration of anti-hyperalgesic effect” value (male Sprague-Dawley rats [4]; after single s.c. administration) was under 6 h.
